# Key:
# ROS1 = target: T1, ROS1 (Homo sapiens, UniProt P08922); assay: kinome scan; format: binding; conditions: 10 µM
# T1 construct: purchased DiscoverX (KINOMEscan)
# ACVRL1 = target: T2, ACVRL1 (Homo sapiens, UniProt P37023); assay: kinome scan; format: binding; conditions: 10 µM
# T2 construct: purchased DiscoverX (KINOMEscan)
# DCAMKL2 = target: T3, DCAMKL2 (Homo sapiens, UniProt Q8N568); assay: kinome scan; format: binding; conditions: 10 µM
# T3 construct: purchased DiscoverX (KINOMEscan)
# FGFR1 = target: T4, FGFR1 (Homo sapiens, UniProt P11362); assay: kinome scan; format: binding; conditions: 10 µM
# T4 construct: purchased DiscoverX (KINOMEscan)
# CHEK2 = target: T5, CHEK2 (Homo sapiens, UniProt O96017); assay: kinome scan; format: binding; conditions: 10 µM
# T5 construct: purchased DiscoverX (KINOMEscan)
# [1] = target: T6, RSK2(Kin.Dom.1-N-terminal) (Homo sapiens, UniProt P51812); assay: kinome scan; format: binding; conditions: 10 µM
# T6 construct: RSK2(Kin.Dom.1-N-terminal); purchased DiscoverX (KINOMEscan)
# BLK = target: T7, BLK (Homo sapiens, UniProt P51451); assay: kinome scan; format: binding; conditions: 10 µM
# T7 construct: purchased DiscoverX (KINOMEscan)
# ADCK4 = target: T8, ADCK4 (Homo sapiens, UniProt Q96D53); assay: kinome scan; format: binding; conditions: 10 µM
# T8 construct: purchased DiscoverX (KINOMEscan)
# T8 sequence (Q96D53 whole entry): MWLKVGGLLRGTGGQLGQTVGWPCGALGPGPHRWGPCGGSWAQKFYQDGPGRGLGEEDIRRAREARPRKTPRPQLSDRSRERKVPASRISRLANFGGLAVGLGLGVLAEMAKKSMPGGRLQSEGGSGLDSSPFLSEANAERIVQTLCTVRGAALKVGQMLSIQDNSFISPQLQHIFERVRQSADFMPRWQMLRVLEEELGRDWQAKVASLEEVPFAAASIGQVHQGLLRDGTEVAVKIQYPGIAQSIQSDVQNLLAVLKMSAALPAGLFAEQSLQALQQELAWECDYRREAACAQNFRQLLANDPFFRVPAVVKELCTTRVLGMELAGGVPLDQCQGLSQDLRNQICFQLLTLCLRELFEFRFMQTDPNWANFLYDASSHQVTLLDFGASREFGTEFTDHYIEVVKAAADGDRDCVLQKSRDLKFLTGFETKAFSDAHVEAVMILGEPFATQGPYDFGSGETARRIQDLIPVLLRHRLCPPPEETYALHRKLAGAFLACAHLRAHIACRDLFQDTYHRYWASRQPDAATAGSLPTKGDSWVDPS
# CDC2L2 = target: T9, CDC2L2 (Homo sapiens, UniProt Q9UQ88); assay: kinome scan; format: binding; conditions: 10 µM
# T9 construct: purchased DiscoverX (KINOMEscan)
# T9 sequence (Q9UQ88 whole entry): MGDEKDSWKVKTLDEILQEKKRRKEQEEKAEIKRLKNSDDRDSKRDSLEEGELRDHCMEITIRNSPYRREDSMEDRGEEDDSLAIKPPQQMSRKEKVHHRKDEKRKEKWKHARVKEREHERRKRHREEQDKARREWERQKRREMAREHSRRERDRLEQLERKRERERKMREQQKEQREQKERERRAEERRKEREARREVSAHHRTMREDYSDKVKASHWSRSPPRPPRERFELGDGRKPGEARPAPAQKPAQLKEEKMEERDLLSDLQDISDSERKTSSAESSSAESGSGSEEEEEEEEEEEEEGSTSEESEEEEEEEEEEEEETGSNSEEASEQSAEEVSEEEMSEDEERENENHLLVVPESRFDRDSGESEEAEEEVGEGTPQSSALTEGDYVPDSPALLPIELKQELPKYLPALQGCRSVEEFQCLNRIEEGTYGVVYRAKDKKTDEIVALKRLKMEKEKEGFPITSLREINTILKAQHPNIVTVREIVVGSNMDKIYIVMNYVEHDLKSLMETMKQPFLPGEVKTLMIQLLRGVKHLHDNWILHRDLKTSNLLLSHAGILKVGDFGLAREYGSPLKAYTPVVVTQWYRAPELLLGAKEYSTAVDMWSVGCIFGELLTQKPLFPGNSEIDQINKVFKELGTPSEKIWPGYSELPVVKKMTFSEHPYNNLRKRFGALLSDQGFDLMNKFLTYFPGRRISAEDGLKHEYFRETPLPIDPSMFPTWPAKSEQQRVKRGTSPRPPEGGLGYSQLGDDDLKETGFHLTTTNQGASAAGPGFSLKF
# NDR1 = target: T10, NDR1 (Homo sapiens, UniProt Q15208); assay: kinome scan; format: binding; conditions: 10 µM
# T10 construct: purchased DiscoverX (KINOMEscan)
# MAP4K2 = target: T11, MAP4K2 (Homo sapiens, UniProt Q12851); assay: kinome scan; format: binding; conditions: 10 µM
# T11 construct: purchased DiscoverX (KINOMEscan)
# TRKC = target: T12, TRKC (Homo sapiens, UniProt Q16288); assay: kinome scan; format: binding; conditions: 10 µM
# T12 construct: purchased DiscoverX (KINOMEscan)
# PIM2 = target: T13, PIM2 (Homo sapiens, UniProt Q9P1W9); assay: kinome scan; format: binding; conditions: 10 µM
# T13 construct: purchased DiscoverX (KINOMEscan)
# EPHA1 = target: T14, EPHA1 (Homo sapiens, UniProt P21709); assay: kinome scan; format: binding; conditions: 10 µM
# T14 construct: purchased DiscoverX (KINOMEscan)
# EGFR(L747-E749delA750P) = target: T15, EGFR(L747-E749delA750P) (Homo sapiens, UniProt P00533, A750P/DEL747-749); assay: kinome scan; format: binding; conditions: 10 µM
# T15 construct: purchased DiscoverX (KINOMEscan)
# CDK9 = target: T16, CDK9 (Homo sapiens, UniProt P50750); assay: kinome scan; format: binding; conditions: 10 µM
# T16 construct: purchased DiscoverX (KINOMEscan)
# CAMK2A = target: T17, CAMK2A (Homo sapiens, UniProt Q9UQM7); assay: kinome scan; format: binding; conditions: 10 µM
# T17 construct: purchased DiscoverX (KINOMEscan)
# BRAF = target: T18, BRAF (Homo sapiens, UniProt P15056); assay: kinome scan; format: binding; conditions: 10 µM
# T18 construct: purchased DiscoverX (KINOMEscan)
# DAPK3 = target: T19, DAPK3 (Homo sapiens, UniProt O43293); assay: kinome scan; format: binding; conditions: 10 µM
# T19 construct: purchased DiscoverX (KINOMEscan)
# ARK5 = target: T20, ARK5 (Homo sapiens, UniProt O60285); assay: kinome scan; format: binding; conditions: 10 µM
# T20 construct: purchased DiscoverX (KINOMEscan)
# CSNK1D = target: T21, CSNK1D (Homo sapiens, UniProt P48730); assay: kinome scan; format: binding; conditions: 10 µM
# T21 construct: purchased DiscoverX (KINOMEscan)
# TRKA = target: T22, TRKA (Homo sapiens, UniProt P04629); assay: kinome scan; format: binding; conditions: 10 µM
# T22 construct: purchased DiscoverX (KINOMEscan)
# MST1 = target: T23, MST1 (Homo sapiens, UniProt Q13043); assay: kinome scan; format: binding; conditions: 10 µM
# T23 construct: purchased DiscoverX (KINOMEscan)
# VEGFR2 = target: T24, VEGFR2 (Homo sapiens, UniProt P35968); assay: kinome scan; format: binding; conditions: 10 µM
# T24 construct: purchased DiscoverX (KINOMEscan)
# T24 sequence (P35968 20-1356): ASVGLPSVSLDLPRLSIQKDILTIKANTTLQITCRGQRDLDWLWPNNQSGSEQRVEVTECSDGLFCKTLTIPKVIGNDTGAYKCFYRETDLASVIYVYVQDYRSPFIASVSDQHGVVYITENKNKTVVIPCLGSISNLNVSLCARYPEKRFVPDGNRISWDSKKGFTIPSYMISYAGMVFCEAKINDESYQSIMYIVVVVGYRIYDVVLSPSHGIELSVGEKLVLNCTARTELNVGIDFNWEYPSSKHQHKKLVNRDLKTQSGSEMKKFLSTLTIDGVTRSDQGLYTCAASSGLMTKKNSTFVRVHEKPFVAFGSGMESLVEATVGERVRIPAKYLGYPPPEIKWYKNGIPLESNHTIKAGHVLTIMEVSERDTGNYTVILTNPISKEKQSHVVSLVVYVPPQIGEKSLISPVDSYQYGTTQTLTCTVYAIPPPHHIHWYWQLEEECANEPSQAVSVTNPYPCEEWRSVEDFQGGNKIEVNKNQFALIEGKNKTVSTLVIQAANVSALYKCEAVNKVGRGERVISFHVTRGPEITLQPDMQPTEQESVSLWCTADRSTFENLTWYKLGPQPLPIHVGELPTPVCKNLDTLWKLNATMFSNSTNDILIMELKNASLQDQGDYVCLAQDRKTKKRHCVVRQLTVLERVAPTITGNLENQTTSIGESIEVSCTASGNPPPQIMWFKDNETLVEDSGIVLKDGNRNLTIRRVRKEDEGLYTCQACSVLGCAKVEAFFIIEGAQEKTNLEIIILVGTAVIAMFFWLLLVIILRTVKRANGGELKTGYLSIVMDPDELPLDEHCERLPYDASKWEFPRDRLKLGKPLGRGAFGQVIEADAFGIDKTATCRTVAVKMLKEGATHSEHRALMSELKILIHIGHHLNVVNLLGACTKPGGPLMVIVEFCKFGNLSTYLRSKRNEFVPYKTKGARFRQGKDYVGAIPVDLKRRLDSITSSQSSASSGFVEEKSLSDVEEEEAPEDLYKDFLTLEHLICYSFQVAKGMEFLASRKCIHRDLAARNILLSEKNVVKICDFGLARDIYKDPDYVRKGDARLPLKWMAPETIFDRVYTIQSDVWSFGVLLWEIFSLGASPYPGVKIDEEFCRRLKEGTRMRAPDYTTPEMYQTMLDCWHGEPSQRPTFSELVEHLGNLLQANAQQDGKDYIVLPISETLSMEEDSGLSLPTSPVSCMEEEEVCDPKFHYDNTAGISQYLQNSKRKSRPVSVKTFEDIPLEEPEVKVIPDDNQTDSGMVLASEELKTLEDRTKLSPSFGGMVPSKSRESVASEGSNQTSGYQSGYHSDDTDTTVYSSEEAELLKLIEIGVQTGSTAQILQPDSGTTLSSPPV
# LATS1 = target: T25, LATS1 (Homo sapiens, UniProt O95835); assay: kinome scan; format: binding; conditions: 10 µM
# T25 construct: purchased DiscoverX (KINOMEscan)
# PIK3CA(E545A) = target: T26, PIK3CA(E545A) (Homo sapiens, UniProt P42336, E545A); assay: kinome scan; format: binding; conditions: 10 µM
# T26 construct: purchased DiscoverX (KINOMEscan)
# PAK6 = target: T27, PAK6 (Homo sapiens, UniProt Q9NQU5); assay: kinome scan; format: binding; conditions: 10 µM
# T27 construct: purchased DiscoverX (KINOMEscan)
# CDKL5 = target: T28, CDKL5 (Homo sapiens, UniProt O76039); assay: kinome scan; format: binding; conditions: 10 µM
# T28 construct: purchased DiscoverX (KINOMEscan)
# MEK5 = target: T29, MEK5 (Homo sapiens, UniProt Q13163); assay: kinome scan; format: binding; conditions: 10 µM
# T29 construct: purchased DiscoverX (KINOMEscan)
# FGFR4 = target: T30, FGFR4 (Homo sapiens, UniProt P22455); assay: kinome scan; format: binding; conditions: 10 µM
# T30 construct: purchased DiscoverX (KINOMEscan)
# EGFR(T790M) = target: T31, EGFR(T790M) (Homo sapiens, UniProt P00533, T790M); assay: kinome scan; format: binding; conditions: 10 µM
# T31 construct: purchased DiscoverX (KINOMEscan)
# [2] = tested on: Cytochrome P450 3A4 isoform 1; set-up: method as in PubChem Bioassay ID 884; conditions: reported activity, data mining; ref PubChem Bioassay ID 884; cited from earlier work
# CDK4-cyclinD3 = target: T32, CDK4-cyclinD3 (Homo sapiens, UniProt P11802); assay: kinome scan; format: binding; conditions: 10 µM
# T32 construct: purchased DiscoverX (KINOMEscan)
# PRKX = target: T33, PRKX (Homo sapiens, UniProt P51817); assay: kinome scan; format: binding; conditions: 10 µM
# T33 construct: purchased DiscoverX (KINOMEscan)
# PYK2 = target: T34, PYK2 (Homo sapiens, UniProt Q14289); assay: kinome scan; format: binding; conditions: 10 µM
# T34 construct: purchased DiscoverX (KINOMEscan)
# KIT(D816H) = target: T35, KIT(D816H) (Homo sapiens, UniProt P10721, D816H); assay: kinome scan; format: binding; conditions: 10 µM
# T35 construct: purchased DiscoverX (KINOMEscan)
# TAK1 = target: T36, TAK1 (Homo sapiens, UniProt O43318); assay: kinome scan; format: binding; conditions: 10 µM
# T36 construct: purchased DiscoverX (KINOMEscan)
# ADCK3 = target: T37, ADCK3 (Homo sapiens, UniProt Q8NI60); assay: kinome scan; format: binding; conditions: 10 µM
# T37 construct: purchased DiscoverX (KINOMEscan)
# T37 sequence (Q8NI60 163-647): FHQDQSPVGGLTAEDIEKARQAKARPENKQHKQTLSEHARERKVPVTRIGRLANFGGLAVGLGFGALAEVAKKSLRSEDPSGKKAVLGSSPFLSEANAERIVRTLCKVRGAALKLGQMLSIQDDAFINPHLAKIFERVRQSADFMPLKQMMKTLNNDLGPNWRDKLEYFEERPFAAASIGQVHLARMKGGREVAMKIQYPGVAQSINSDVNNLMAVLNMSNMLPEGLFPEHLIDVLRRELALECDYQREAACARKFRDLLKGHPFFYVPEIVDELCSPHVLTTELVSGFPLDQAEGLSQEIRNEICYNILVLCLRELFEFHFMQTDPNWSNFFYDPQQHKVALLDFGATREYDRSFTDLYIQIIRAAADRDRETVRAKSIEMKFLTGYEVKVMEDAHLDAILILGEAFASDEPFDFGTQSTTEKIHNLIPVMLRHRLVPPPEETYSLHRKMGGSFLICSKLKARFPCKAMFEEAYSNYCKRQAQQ
# TTK = target: T38, TTK (Homo sapiens, UniProt P33981); assay: kinome scan; format: binding; conditions: 10 µM
# T38 construct: purchased DiscoverX (KINOMEscan)
# EPHB3 = target: T39, EPHB3 (Homo sapiens, UniProt P54753); assay: kinome scan; format: binding; conditions: 10 µM
# T39 construct: purchased DiscoverX (KINOMEscan)
# T39 sequence (P54753 34-998): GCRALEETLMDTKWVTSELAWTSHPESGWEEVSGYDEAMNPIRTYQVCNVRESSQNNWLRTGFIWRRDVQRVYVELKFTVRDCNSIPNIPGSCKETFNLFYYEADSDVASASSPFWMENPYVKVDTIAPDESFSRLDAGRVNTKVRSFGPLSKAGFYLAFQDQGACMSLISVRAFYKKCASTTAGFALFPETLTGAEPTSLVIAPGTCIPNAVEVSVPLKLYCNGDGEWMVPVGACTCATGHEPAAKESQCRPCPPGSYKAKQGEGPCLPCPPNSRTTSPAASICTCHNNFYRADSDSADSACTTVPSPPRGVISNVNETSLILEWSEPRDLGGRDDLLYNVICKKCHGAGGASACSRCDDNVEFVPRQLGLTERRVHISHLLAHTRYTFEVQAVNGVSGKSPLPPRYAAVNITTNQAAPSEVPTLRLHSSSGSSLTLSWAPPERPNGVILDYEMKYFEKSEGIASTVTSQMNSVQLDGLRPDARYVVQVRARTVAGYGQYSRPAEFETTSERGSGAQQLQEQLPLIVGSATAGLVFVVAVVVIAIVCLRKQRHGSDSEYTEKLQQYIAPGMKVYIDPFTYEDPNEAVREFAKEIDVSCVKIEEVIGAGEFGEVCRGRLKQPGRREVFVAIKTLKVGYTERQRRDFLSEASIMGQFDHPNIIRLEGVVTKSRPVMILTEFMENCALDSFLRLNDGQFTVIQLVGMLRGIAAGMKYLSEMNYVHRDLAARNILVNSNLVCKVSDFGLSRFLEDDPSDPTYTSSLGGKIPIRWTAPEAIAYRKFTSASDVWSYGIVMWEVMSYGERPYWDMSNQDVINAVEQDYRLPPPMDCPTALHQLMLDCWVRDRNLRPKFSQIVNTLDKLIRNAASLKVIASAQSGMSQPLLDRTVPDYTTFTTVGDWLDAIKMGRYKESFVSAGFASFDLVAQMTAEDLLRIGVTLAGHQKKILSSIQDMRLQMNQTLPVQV
# FES = target: T40, FES (Homo sapiens, UniProt P07332); assay: kinome scan; format: binding; conditions: 10 µM
# T40 construct: purchased DiscoverX (KINOMEscan)
# T40 sequence (P07332 whole entry): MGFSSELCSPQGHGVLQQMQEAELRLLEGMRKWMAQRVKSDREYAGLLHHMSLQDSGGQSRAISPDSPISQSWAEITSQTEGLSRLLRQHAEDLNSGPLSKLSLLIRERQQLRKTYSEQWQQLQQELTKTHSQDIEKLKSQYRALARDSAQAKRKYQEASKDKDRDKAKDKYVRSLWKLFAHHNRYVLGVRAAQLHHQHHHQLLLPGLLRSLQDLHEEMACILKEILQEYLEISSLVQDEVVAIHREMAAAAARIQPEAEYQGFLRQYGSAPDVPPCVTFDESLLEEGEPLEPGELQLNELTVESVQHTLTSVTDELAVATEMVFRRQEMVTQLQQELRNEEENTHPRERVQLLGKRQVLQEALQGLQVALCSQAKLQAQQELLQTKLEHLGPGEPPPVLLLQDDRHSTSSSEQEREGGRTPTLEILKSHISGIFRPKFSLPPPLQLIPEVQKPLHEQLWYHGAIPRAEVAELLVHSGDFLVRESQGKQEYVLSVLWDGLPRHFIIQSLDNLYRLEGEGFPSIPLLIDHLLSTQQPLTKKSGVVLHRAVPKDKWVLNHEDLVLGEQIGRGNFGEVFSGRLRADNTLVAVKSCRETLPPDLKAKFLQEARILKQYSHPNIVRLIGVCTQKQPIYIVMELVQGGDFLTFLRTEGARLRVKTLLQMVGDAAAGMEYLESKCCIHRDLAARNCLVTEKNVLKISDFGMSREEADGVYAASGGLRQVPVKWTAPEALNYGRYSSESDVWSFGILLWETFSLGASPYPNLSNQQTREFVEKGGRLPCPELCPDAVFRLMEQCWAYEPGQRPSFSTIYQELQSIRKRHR
# PKAC-alpha = target: T41, PKAC-alpha (Homo sapiens, UniProt P17612); assay: kinome scan; format: binding; conditions: 10 µM
# T41 construct: purchased DiscoverX (KINOMEscan)
# MST2 = target: T42, MST2 (Homo sapiens, UniProt Q13188); assay: kinome scan; format: binding; conditions: 10 µM
# T42 construct: purchased DiscoverX (KINOMEscan)
compound,measurement,setting,value
"Nc1ccc(N=Nc2ccccc2)c(N)n1 [phenazopyridine, 2,6-diamino-3-(phenylazo)pyridine]",kinase inhibition,ROS1,100
same,kinase inhibition,ACVRL1,71
same,kinase inhibition,DCAMKL2,89
same,kinase inhibition,FGFR1,100
same,kinase inhibition,CHEK2,99
same,kinase inhibition,[1],100
same,remaining binding (% of control),BLK,100
same,kinase inhibition,ADCK4,90
same,kinase inhibition,CDC2L2,84
same,kinase inhibition,NDR1,100
same,kinase inhibition,MAP4K2,65
same,kinase inhibition,TRKC,90
same,kinase inhibition,PIM2,100
same,kinase inhibition,EPHA1,100
same,kinase inhibition,EGFR(L747-E749delA750P),86
same,kinase inhibition,CDK9,88
same,kinase inhibition,CAMK2A,97
same,kinase inhibition,BRAF,96
same,kinase inhibition,DAPK3,100
same,kinase inhibition,ARK5,89
same,kinase inhibition,CSNK1D,50
same,kinase inhibition,TRKA,100
same,kinase inhibition,MST1,88
same,kinase inhibition,VEGFR2,97
same,kinase inhibition,LATS1,87
same,kinase inhibition,PIK3CA(E545A),100
same,kinase inhibition,PAK6,100
same,kinase inhibition,CDKL5,100
same,kinase inhibition,MEK5,90
same,kinase inhibition,FGFR4,91
same,kinase inhibition,EGFR(T790M),100
same,Concentration,[2],100 nM
same,kinase inhibition,CDK4-cyclinD3,100
same,kinase inhibition,PRKX,91
same,kinase inhibition,PYK2,100
same,kinase inhibition,KIT(D816H),85
same,kinase inhibition,TAK1,80
same,kinase inhibition,ADCK3,91
same,kinase inhibition,TTK,88
same,kinase inhibition,EPHB3,85
same,kinase inhibition,FES,100
same,kinase inhibition,PKAC-alpha,100
same,kinase inhibition,MST2,73

# Reference: PMC8371461 (Frontiers in Pharmacology, 2021)
